Measurements: US12162935B2, “Regimens, compositions and methods with capsaicin and TNF-alpha inhibitor” (priority 2018, dated 2024)

Tests used:
Wistar rats = experiment: ABR threshold shifts, cisplatin-induced hearing loss; format: in vivo, rat
Description: Adult male Wistar rats (200-350 g) (from Envigo) were used for this study. Rats were housed in a temperature controlled room with a twelve hour light/dark cycle. They had free access to commercial food and water provided by the SIU Laboratory Animal Care facility.
Prior to experiments, rats were anesthetized with ketamine HCl/xylazine mixture (24.6/3 mg/kg) and then placed in a sound-attenuation chamber (Industrial Acoustic Company, Inc.). Body temperature of the rats was maintained at 37° C. with an animal blanket system. Pretreatment auditory brainstem responses (ABRs) was performed using an IHS-High-frequency System (Intelligent Hearing Systems, Miami, FL). The rats were exposed to acoustic stimuli via HIS transducers that were directly placed at the entrance of the ear canal. ABR thresholds were obtained for 5 ms duration tone bursts at 8, 16 and 32 kHz at a rate of 50/s. Thresholds were determined by visually produced lowest intensity evoked potentials (EP) that progressed in 10 dB steps. Evoked potentials (Eps) were amplified to 200,000×, and were band pass filtered (100-3000 Hz) and averaged over 1024 sweeps [Mukherjea et al., 2010].
At the end of auditory testing, the anesthetized animals were decapitated and the cochlea harvested. The SIU Laboratory Animal Care and Use Committee approved all animal procedures.
Male Wistar rats were anesthetized using ketamine/xylazine cocktail. The tympanic membrane was punctured as described in [Mukherjea et al., 2010].

UB/OC-1 cells [1] = experiment: Western blot of STAT1, STAT3 and JAK2 phosphorylation; format: cell-based, mouse
UB/OC-1 cells [2] = experiment: Cell viability assay (MTS assay); format: cell-based; details: capsaicin 2.5 μM prior to cisplatin 20 μM
Description: The in vitro UB/OC1 cell proliferation was performed by using the CellTiter 96® AQueous One Solution Cell Proliferation Assay Kit (Promega, Madison, WI), according to the manufacturer's instructions. 3,500 cells were seeded per well into a 96-well plate. […] After 48 h, 20 μl of CellTiter 96 AQueous One Solution reagent was added to each well in 100 μl of total volume of media. Cells were incubated for 1 h, and recorded absorbance at 490 nm using an ELISA plate reader. The absorbance is directly proportional to the number of living cells and is expressed as a percent relative to vehicle-treated cells.

rat cochlea [3] = experiment: Immunolabelling of mid-modiolar cochlear sections, fluorescent intensity analyses; format: in vivo
Description: Cochleae were perfused with a 4% paraformaldehyde solution, cochleae were decalcified for 7-10 days in 120 mM EDTA, embedded them in paraffin and then sectioned the specimens [Mukherjea et al., 2010]. Slides were deparaffined, rehydrated and then stained with primary and secondary antibodies. Glass coverslips were mounted on the specimens with ProLong Diamond mounting medium. Images were obtained using a Leica confocal microscope (Buffalo Grove, IL).
Image J software was used to analyze the mean gray area for the various images. These values were then used to quantify the increase or decrease in % fluorescence intensity of the various regions of the samples compared to control.

rat cochlea [4] = experiment: Cochlear gene expression by qPCR after noise exposure; format: in vivo
Description: Cochleae were pared down to the bone, crushed in liquid nitrogen followed by extraction in 500 μl of TRI reagent. 0.1 ml of chloroform was added, and the tube was shaken vigorously for 15 seconds and centrifuged at 12,000×g for 15 min. RNA was extracted by washing the pellet with 0.5 ml ice-cold isopropanol followed by cold 75% treated ethanol. The ethanol was removed and the tube was air dried briefly. The RNA pellet was resuspended in nuclease free water and RNA levels were determined using optical density readings corresponding to wavelengths of 260 nm, 280 and 320 nm using a spectrophotometer (Eppendorf BioPhotometer, Hamburg, Germany).
500 ng of total RNA was converted to cDNA using iScript cDNA Synthesis Kit (Bio-Rad, Hercules, CA). The reaction mixture was set up as follows: Ing of total RNA, 4 μl of iScript reaction mix, 1 μl of iScript reverse transcriptase, nuclease free water to bring the total volume to 20 μl. The reaction mix was incubated at 25° C. for 5 min, 42° C. for 30 minutes and 85° C. for 5 minutes. This cDNA reaction mix was used for real time PCR, as described previously [Mukherjea et al., 2006]. Gene specific primer pairs were used for the various reactions and mRNA expression levels were normalized to the levels of GAPDH. The primer sets were purchased from Sigma Genosys (St. Louis, MO), and were as follows: […]

[5] = capsaicin 2.5 μM 30 min and/or cisplatin 2.5 μM 45 min (FIG. 5.E)

## COc1cc(CNC(=O)CCCC/C=C/C(C)C)ccc1O [capsaicin, 8-methyl-N-vanillyl-trans-6-nonenamide]
Wistar rats; TT-capsaicin 50 μl of 0.1 μM 24 h prior to cisplatin 11 mg/kg ip, 72 h, 8, 16 and 32 kHz
  ABR threshold shifts produced by cisplatin: significantly reduced ABR threshold shifts
Wistar rats; TT-capsaicin alone, 72 h, vs TT vehicle
  ABR thresholds: did not significantly alter ABR thresholds
Wistar rats; capsaicin alone by trans-tympanic injection or oral gavage, 72 h
  ABR threshold: did not significantly alter ABR threshold
Wistar rats; oral capsaicin 5 mg/kg 24 h prior to cisplatin
  protection against cisplatin-induced ABR threshold shifts: did not protect
Wistar rats; oral capsaicin 20 mg/kg 24 h prior to cisplatin (FIG. 11.B)
  cisplatin ABR threshold shift: abrogated
Wistar rats; oral capsaicin 10 or 20 mg/kg 24 h prior to cisplatin
  protection against cisplatin-induced ABR threshold shifts: Significant protection
UB/OC-1 cells [1]; 2.5 μM, time course
  JAK2 phosphorylation: increased activation
UB/OC-1 cells [1]; [5]
  p-STAT1: 135.4±4%
  p-STAT3: 173±4%
UB/OC-1 cells [1]; capsaicin 2.5 μM, reached in 45 min
  p-STAT3/p-STAT1 ratio peak value: ~130%
UB/OC-1 cells [1]; capsaicin 2.5 μM, returns to baseline by 120 min
  time of peak STAT1 Ser^727 phosphorylation: 45 min
UB/OC-1 cells [1]; of control (FIG. 5.F)
  p-STAT3/p-STAT1 ratio: 128±4.1%
UB/OC-1 cells [2]
  cisplatin-induced cell killing: blocked cisplatin-induced cell killing
Rat cochlea [3]; capsaicin pre-treatment
  TRPV1, NOX3 and iNOS protein expression induced by cisplatin: significantly decreased
Rat cochlea [3]; capsaicin pretreatment before cisplatin
  CB2 expression in three regions of the cochleae: significantly increased the expression of CB2
Rat cochlea [3]; oral capsaicin pretreatment, compared to cisplatin
  p-STAT3/p-STAT1 ratio in cochlear regions: significantly increased
Rat cochlea [3]; single agent
  CB2 labelling in the OHCs, SGs and SVA: increased CB2 labelling in all the three regions to an even greater extent
Rat cochlea [3]; single agent vs control
  TRPV1, NOX3 and iNOS labelling in the OHCs, SG and SVA: did not produce significant change
Rat cochlea [3]; single agent, 72 h, vs oral PBS
  p-STAT3/p-STAT1 ratio in cochlear regions: increased the p-STAT3/p-STAT1 ratio in all the three regions of the organ of Corti significantly
Rat cochlea [4]; oral Cap+NE
  Bax gene expression over oral PBS control: 0.86±0.1 fold
  COX2 gene expression over oral PBS control: 0.84±0.2 fold
  NOX3 gene expression over oral PBS control: 0.5±0.2 fold
  TNF-α gene expression over oral PBS control: 0.9±0.1 fold
  TRPV1 gene expression over oral PBS control: 0.85±0.2 fold
Rat cochlea [4]; oral capsaicin alone
  Bax gene expression over oral PBS control: 0.69±0.1 fold
  COX2 gene expression over oral PBS control: 1±0.1 fold
  NOX3 gene expression over oral PBS control: 0.7±0.2 fold
  TNF-α gene expression over oral PBS control: 1±0.15 fold
  TRPV1 gene expression over oral PBS control: 0.9±0.1 fold
